Assay results as given in patent publication US20090291971A1, “HETEROARYL ETHERS AND PROCESSES FOR THEIR PREPARATION” (Wyeth, priority 2007, published 2009).
pIC50: −log10 of the molar value.

Columns and labels:
Format in all cases: biochemical
PI3K alpha = PI3K alpha (Homo sapiens, UniProt P42336); test: PI3 Kinase Assay (PI3K alpha)
Protocol: (§1) PI3-Kinase reactions were performed in […], pH 7, […], and 25 μM ATP, with diC8-PI(4,5)P2 (Echelon, Salt Lake City Utah) as substrate. Nunc 384 well black polypropylene fluorescent plates were used for PI3K assays. Reactions were quenched by the addition of EDTA to a final concentration of […]. Final reaction volumes were […]. For evaluation of PI 3-K inhibitors, 5 ng of enzyme and 2.5 μM of substrate was used per […] reaction volume, and inhibitor concentrations ranged from 100 μM to […]; the final level of DMSO in reactions never exceeded 2%. Reactions were allowed to proceed for one hour at 25° C. After 1 hour, GST-tagged GRP1 (general receptor for phosphoinositides) PH domain fusion protein was added to a final concentration of 100 nM, and BODIPY-TMRI(1,3,4,5)P4 (Echelon) was also added to a final concentration of 5 nM. Final sample volumes were 25 μl with a final DMSO concentration of 0.8%. Assay Plates were read on Perkin-Elmer Envision plate readers with appropriate filters for Tamra [BODIPY-TMRI(1,3,4,5)P4]. Data obtained were used to calculate enzymatic activity and enzyme inhibition by inhibitor compounds.

PI3K gamma = PI3K gamma (Homo sapiens, UniProt P48736); test: PI3 Kinase Assay (PI3K gamma); conditions: 1 h
PI3K gamma, sequence (P48736 whole entry, species assumed): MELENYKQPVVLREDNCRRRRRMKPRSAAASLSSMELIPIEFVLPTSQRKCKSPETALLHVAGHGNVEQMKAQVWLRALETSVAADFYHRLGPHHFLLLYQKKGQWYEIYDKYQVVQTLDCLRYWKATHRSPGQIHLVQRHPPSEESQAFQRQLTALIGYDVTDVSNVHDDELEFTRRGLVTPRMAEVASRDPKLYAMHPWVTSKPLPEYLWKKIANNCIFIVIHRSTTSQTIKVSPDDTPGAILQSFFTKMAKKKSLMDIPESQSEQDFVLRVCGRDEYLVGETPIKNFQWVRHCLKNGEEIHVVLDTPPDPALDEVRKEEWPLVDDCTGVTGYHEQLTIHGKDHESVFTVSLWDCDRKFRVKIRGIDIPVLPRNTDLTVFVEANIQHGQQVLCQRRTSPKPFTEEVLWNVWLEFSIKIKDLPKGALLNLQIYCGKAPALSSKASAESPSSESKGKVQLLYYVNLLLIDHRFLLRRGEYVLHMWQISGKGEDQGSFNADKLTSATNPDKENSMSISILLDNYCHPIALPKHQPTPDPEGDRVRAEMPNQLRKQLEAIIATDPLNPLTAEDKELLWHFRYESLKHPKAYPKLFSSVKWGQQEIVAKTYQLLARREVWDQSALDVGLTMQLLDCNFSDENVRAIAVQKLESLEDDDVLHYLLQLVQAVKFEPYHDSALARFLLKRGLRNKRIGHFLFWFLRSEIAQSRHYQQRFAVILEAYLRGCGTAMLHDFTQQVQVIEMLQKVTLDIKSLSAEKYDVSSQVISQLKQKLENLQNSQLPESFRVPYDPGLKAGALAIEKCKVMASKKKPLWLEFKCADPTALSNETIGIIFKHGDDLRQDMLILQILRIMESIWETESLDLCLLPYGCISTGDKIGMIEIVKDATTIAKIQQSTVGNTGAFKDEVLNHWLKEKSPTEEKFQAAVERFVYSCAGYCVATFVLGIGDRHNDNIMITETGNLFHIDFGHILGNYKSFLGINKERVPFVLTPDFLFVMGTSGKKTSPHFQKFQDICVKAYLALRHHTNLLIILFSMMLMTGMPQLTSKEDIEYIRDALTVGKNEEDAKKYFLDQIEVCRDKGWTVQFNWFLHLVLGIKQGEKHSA
Protocol: as §1

Flag-IKKβ = biological target: T1, Flag-IKKβ (Homo sapiens, UniProt O14920); test: IKK Kinase Assay (LANCE)
T1 construct: made in house; host or cells: SF9 insect cells (baculovirus)
T1 sequence (O14920 1-756): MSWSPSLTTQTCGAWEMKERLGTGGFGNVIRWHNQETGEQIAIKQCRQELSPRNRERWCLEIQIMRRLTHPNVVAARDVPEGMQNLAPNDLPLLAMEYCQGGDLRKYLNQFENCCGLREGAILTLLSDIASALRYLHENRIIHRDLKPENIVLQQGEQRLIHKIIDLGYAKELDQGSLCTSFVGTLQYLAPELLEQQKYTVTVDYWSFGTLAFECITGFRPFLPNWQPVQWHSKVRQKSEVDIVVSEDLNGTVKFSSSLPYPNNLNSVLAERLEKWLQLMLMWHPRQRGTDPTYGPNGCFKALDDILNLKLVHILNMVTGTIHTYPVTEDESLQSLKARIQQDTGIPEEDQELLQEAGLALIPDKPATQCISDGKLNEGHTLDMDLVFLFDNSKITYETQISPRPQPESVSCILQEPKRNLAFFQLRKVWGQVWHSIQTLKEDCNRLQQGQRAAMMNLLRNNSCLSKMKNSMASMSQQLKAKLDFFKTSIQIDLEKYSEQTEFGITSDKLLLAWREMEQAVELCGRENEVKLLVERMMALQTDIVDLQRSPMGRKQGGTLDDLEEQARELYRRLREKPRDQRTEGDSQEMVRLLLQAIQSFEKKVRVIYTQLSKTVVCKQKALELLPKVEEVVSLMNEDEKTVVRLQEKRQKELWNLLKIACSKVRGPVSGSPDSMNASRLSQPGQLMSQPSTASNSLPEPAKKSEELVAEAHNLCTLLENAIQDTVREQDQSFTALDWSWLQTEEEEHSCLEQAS
Source text: Human IKKβ cDNA is amplified by reverse transcriptase-polymerase chain reaction from human placental RNA (CLONTECH) using primers that incorporated the FLAG-epitope at the C terminus of IKKβ. FLAG-IKKβ is inserted into the baculovirus expression plasmid pFASTBAC (Life Technologies). Following the manufacturer's protocol for the BAC-TO-BAC (Life Technologies) Baculovirus Expression System, recombinant baculoviruses expressing the IKKβ enzyme are made. Briefly, 9×10^5 SF9 cells per well of a 6-well plate are transfected with one μg of miniprep bacmid DNA using the CellFECTIN™ reagent. Virus is harvested 72 hours post transfection, and a viral titer is performed, after which a high titer viral stock (2×10^8 pfu/ml) is amplified by three to four rounds of infection. […]
Purified Flag-IKKβ enzyme (2 nM final concentration) is typically used in the kinase reaction buffer described above supplemented with 0.0025% Brij solution (Sigma) to help stabilize the enzyme. […] 25 μL of 20 mM EDTA is added to terminate the reactions and then 100 μL of detection mixture [0.25 nM Europium labeled anti-phospho-IκBα (prepared by Wallac) and 0.25 μg/mL final concentration streptavidin-APC, Wallac] is added 30 minutes before reading the plates in a Wallac VICTOR plate reader. […]

[1] = biological target: T2, human PKCθ full length enzyme (Homo sapiens, UniProt Q04759); test: PKC Theta IMAP Assay
T2 construct: human PKCθ full length enzyme; purchased Panvera P2996
T2 sequence (Q04759 whole entry): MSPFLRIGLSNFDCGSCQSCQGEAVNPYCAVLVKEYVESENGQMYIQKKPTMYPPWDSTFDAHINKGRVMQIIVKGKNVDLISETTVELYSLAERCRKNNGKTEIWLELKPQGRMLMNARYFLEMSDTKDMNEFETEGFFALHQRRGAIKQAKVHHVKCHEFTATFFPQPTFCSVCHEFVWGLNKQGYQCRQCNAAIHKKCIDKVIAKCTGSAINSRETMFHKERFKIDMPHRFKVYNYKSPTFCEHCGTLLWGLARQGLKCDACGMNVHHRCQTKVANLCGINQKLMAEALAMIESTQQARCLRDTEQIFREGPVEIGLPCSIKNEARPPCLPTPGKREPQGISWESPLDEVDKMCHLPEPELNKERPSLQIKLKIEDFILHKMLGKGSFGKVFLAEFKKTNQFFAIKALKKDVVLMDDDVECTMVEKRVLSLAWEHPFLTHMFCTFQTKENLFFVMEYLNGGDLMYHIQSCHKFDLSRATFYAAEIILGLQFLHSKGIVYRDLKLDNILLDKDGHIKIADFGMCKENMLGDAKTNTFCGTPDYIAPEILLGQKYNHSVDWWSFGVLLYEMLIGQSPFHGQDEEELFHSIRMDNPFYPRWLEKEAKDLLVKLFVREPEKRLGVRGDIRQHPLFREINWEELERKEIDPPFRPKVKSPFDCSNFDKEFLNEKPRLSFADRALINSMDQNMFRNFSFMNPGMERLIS
Protocol: The materials used include the following: human PKCθ full length enzyme (Panvera Cat#P2996); substrate peptide: 5FAM-RFARKGSLRQKNV-OH (Molecular Devices, RP7032); ATP (Sigma Cat #A2383); DTT (Pierce, 20291); 5× kinase reaction buffer (Molecular Devices, R7209); 5× binding buffer A (Molecular Devices, R7282), 5× binding buffer B (Molecular Devices, R7209); IMAP Beads (Molecular Devices, R7284); and 384-well plates (Corning Costar, 3710).
The reaction buffer was prepared by diluting the 5× stock reaction buffer and adding DTT to obtain a concentration of 3.0 mM. The binding buffer was prepared by diluting the 5× binding buffer A. A master mix solution was prepared using a 90% dilution of the reaction buffer containing 2×ATP (12 uM) and 2× peptide (200 nm). Compounds were diluted in DMSO to 20× of the maximum concentration for the IC50 measurement. 27 μl of the master mix solution for each IC50 curve was added to the first column in a 384-well plate and 3 μl of 20× compound in DMSO was added to each well. The final concentration of compound was 2× and 10% DMSO. DMSO was added to the rest of the master mix to increase the concentration to 10%. 10 μl of the master mix containing 10% DMSO was added to the rest of the wells on the plate except the 2nd column. 20 μl was transferred from the first column to the 2nd column. […] FP was measured using Envision2100 (PerkinElmer Life Sciences). […]

PI3K alpha, sequence (P42336 whole entry, species assumed, the tested form may be a part): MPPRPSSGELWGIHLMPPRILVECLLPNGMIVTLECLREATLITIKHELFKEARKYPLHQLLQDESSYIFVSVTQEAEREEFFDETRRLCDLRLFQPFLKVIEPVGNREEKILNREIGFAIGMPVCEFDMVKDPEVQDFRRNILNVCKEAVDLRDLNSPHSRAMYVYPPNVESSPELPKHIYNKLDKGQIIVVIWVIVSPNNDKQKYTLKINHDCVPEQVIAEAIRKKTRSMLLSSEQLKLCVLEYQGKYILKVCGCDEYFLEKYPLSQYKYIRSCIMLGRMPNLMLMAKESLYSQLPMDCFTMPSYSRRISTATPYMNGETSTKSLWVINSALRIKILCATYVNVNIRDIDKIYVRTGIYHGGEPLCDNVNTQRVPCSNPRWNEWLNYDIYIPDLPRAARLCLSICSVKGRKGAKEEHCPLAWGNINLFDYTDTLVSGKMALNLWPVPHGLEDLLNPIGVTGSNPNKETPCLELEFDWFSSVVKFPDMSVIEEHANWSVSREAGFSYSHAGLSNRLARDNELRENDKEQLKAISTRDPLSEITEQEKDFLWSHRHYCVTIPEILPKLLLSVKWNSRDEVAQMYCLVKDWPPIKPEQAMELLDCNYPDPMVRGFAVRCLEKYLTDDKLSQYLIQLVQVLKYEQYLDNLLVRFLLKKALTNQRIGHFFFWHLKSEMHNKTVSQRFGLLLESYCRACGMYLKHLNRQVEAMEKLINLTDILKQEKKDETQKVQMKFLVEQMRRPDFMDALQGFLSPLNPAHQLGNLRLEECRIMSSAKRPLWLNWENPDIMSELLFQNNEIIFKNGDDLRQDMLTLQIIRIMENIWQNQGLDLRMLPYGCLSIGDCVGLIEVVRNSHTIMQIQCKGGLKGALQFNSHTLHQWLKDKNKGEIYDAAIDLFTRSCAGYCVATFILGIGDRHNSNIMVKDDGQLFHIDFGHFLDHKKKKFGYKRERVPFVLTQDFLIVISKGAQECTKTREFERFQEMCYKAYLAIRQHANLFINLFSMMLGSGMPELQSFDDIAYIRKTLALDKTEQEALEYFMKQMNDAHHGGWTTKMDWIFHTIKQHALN
PI3K alpha, sequence (P27986 whole entry partner, species assumed, the tested form may be a part): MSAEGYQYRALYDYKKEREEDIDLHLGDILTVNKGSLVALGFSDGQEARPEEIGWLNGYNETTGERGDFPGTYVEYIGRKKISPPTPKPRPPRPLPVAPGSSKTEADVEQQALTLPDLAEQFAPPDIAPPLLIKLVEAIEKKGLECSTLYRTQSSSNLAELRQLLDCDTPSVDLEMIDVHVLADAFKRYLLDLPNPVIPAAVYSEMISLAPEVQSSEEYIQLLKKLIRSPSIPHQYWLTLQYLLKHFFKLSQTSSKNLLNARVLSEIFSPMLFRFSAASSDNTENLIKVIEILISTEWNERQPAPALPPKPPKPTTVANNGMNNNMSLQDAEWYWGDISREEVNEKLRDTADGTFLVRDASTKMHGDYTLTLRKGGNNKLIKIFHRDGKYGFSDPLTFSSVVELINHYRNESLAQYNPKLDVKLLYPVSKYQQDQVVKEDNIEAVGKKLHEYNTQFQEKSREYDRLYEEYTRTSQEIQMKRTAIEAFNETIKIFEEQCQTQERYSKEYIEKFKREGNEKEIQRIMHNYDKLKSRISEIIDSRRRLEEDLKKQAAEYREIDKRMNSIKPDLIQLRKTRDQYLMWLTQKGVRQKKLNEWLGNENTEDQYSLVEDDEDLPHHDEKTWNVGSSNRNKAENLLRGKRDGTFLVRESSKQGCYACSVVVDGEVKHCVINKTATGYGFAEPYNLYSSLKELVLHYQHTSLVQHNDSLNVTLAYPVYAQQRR

In the case of `Cc1noc(C)c1Oc1ncnc2ccccc12` [Example 26, 3,5-Dimethyl-4-(quinazolin-4-yloxy)isoxazole], the inhibition at 30 µM (PI3K alpha) was 56%, the inhibition at 30 µM (PI3K gamma) was 12% and the inhibition at 30 µM (Flag-IKKβ) was 51%. It also gave a pIC50 [1] of 4.59.
